# In patent US20240254536A1, “[…] ARRAY AND USES THEREOF” (DrugArray, Inc., priority 2021, published 2024):
# System: E. coli
# Experiment: pin array antibiotic susceptibility assay (zones of inhibition) on LB agar plates
# Type: cell-based
# Conditions: 7×7 pin array
# Procedure: 1. Cell Introduction: E. coli resuspension were plated onto LB agar plates and incubated at 37° C. until the cells reach desired condition.
# 2. Pin array preparation: Two 7×7 pin arrays were loaded with ampicillin from 0.2 μg to 4 μg according to the configurations shown in FIGS. 5B and 6B, respectively.
# (§1) 3. Treatment: After the cells reach the desired condition, the pin arrays loaded with ampicillin according to the configurations shown in FIGS. 5B and 6B were coupled to LB agar plates with E. coli culture. The LB agar plates were incubated at 37° C.
# 2. Pin array preparation: Two 7×7 pin arrays were loaded with ampicillin from 0.4 μg to 4 μg according to the configurations shown in FIGS. 7A and 7B, respectively.
# as §1, with “7A” for “5B”, “7B” for “6B”, “37° C., and stored overnight at 4°” for “37°”, “C. and in Styrofoam box with ice packs, respectively.” for “C.”
# 2. Pin array preparation: A 7×7 pin array was loaded with ampicillin from 0.4 μg to 4 μg according to the configurations shown in FIG. 8A.
# 3. Treatment: After the cells reach the desired condition, the pin array loaded with ampicillin according to the configurations shown in FIG. 8A was coupled to an LB agar plate with E. coli culture. The LB agar plate was incubated at 37° C., and images of the plates were taken at the same day (FIG. 8A), and after 5 weeks at 4° C. (FIG. 8B).
structure (smiles),measurement,setting,value
CC1(C)S[C@@H]2[C@H](NC(=O)[C@H](N)c3ccccc3)C(=O)N2[C@H]1C(=O)O [ampicillin],zones of inhibition,"ampicillin 0.2 μg to 4 μg, configuration of FIG. 5B, 37° C. (FIG. 5A)","well-defined, and a dose-dependent manner of the sizes of the zones"
same,zones of inhibition,"ampicillin 0.2 μg to 4 μg, configuration of FIG. 6B, 37° C. (FIG. 6A)","well-defined, dose-dependent zones of inhibition"
same,zones of inhibition,"ampicillin 0.4 μg to 4 μg, after 5 weeks of storage at 4° C. (FIG. 8B)",smaller zones of inhibition
same,zones of inhibition,"ampicillin 0.4 μg to 4 μg, image taken the same day (FIG. 8A)","Well-defined, dose-dependent zones of inhibition"
same,zones of inhibition,"ampicillin 0.4 μg to 4 μg, stored overnight at 4° C. (FIG. 7A)","Well-defined, dose-dependent zones of inhibition"
same,zones of inhibition,"ampicillin 0.4 μg to 4 μg, stored overnight in Styrofoam box with ice packs (FIG. 7B)","Well-defined, dose-dependent zones of inhibition"
